For experiment [1], the target named is T1, Arginase (Schistosoma mansoni, UniProt Q6WVP6).
T1 sequence (Q6WVP6 whole entry): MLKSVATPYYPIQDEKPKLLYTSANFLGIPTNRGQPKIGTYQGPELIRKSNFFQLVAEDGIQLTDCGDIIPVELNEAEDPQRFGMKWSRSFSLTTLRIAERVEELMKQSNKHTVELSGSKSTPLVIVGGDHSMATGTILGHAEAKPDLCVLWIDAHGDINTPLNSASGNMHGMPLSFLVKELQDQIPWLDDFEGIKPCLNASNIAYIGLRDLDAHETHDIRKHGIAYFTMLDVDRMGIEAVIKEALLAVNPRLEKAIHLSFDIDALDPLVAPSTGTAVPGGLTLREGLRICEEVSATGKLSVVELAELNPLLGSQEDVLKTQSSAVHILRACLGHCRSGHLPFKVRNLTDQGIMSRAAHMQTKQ
Briefly: ITC. To be noted: pH 8.5. As to the method: SmARG was dialyzed against 50 mM bicine (pH 8.5), 100 μM MnCl2, and 1.0 mM TCEP [5% (v/v) DMSO was included in the dialysis buffer when SmARG was titrated with ABH-PE and ABH-DP]. The inhibitor (ABH, 0.547 mM; NOHA, 1.097 mM; nor-NOHA, 0.443 mM; ABH-PE, 0.410 mM; ABH-DP, 0.436 mM) was dissolved in dialysis buffer.

The target of experiment [2] is T1, Arginase. Briefly: Archibald assay. The note with it: pH 8.5. How it is done: Briefly, 0.5-50 mM L-arginine (pH 8.5) was added to a solution of 50 mM 4-(2-hydroxyethyl)piperazine-1-propanesulfonic acid (EPPS) (pH 8.5) and 100 μM MnCl2. The reaction (200 μL) was initiated by adding 1 μM SmARG at 21°C and terminated after 1 min using 30 μL of a 3:1 (v/v) concentrated acid/dye solution.

SMILES strings stand for the structures.

The Kd is a measure of binding affinity in units of concentration. Low readings indicate higher affinity, high ones lower affinity. As usually defined, the Ki is a dissociation constant, usually derived from enzyme kinetics or from competition with a known ligand.

`N[C@](CCCCB(O)O)(CCN1CCCCC1)C(=O)O`: the affinity at Arginase [1], expressed as Kd, was 260 nM. `N[C@@H](CCCCB(O)O)C(=O)O` [2(S)-amino-6-boronohexanoic acid (ABH)] returned a Ki on Arginase [2] of 1800 nM. This compound came in with a Kd at Arginase [1] of 1300 nM. On to `N[C@@](CCCCB(O)O)(C(=O)O)C1CCN(Cc2ccc(Cl)c(Cl)c2)CC1` [(R)-2-amino-6-borono-2-[1-(3,4-dichlorobenzyl)piperidin-4-yl]hexanoic acid (ABH-DP)], for which, on Arginase [1], the Kd amounted to 540 nM.

Values taken from BindingDB's records for doi:10.1021/bi5004519 (University of Pennsylvania, 2014).
